What was measured:
[1] = molecular target: T1, interaction of TAZ and MyoD (Homo sapiens, UniProt Q9GZV5); assay: Immunoprecipitation of FLAG-TAZ and HA-MyoD in HEK 293 cells; assay type: cell-based; details: HEK 293 expressing FLAG-TAZ and HA-MyoD
T1 construct: expressed in transfected cells; host or cells: HEK 293 (human embryonic kidney cells)
Protocol: (2) For analyzing the effects of IBS008738 on the interaction of TAZ and MyoD, immunoprecipitation was performed on human embryonic kidney cells (HEK 293) expressing FLAG-TAZ and HA-MyoD, with anti-FLAF M2 beads.

[2] = system: HCT116 cells; assay: Immunoblotting of EMT markers in HCT116 cells; assay type: cell-based, human
Protocol: (1) A431 cells, (epidermoid carcinoma), A549 cells (adenocarcinomic human alveolar basal epithelial cell) and HCT116 cells (human colon cancer) were treated with IBS008738 or DMSO, respectively, and evaluated by immunoblotting.
HEK293, A431, A549, HCT116, MCF7 and SW480 cells were cultured in Dulbecco's Modified Eagle Medium (DMEM) containing 10% fetal bovine serum (FBS), 10 mM HEPES-NaOH at pH 7.4, 100 U/ml penicillin and 100 mg/I streptomycin under 5% CO2 at 37° C.

[3] = system: TAZ; assay: Localization of TAZ in the cell by cell fraction; assay type: cell-based, mouse; details: C2C12 cells, 24 hours under differentiation condition
Protocol: Phosphorylation of TAZ and its localization in the cell are important factors in controlling the activity of TAZ. The localization of TAZ in the cell was examined by performing cell fraction of C2C12 cells after being cultured for 24 hours under differentiation condition in a medium added with IBS008738 or DMSO.

[4] = system: C2C12 cells; assay: Evaluation of myogenesis of C2C12 cells by fusion index; assay type: cell-based, mouse; details: differentiation condition 72 hours, DMSO as 1, average of three
Protocol: (1) C2C12 cells were grown to confluence under growth condition, and then in differentiation condition for 72 hours, in a culture medium added with DMSO, IBS008738 (exemplary compound 1) or exemplary compounds 2 to 44, at a concentration of 1 μM, 3 μM or 10 μM, respectively. Thereafter, the degree of myogenesis was evaluated by a fusion index (a value obtained by dividing the number of nuclei detected in multinucleated myosin heavy chain (MHC)-positive cells by the total number of the nuclei). Specifically, exemplary compounds were divided into five groups, and DMSO and IBS008738 were evaluated in each group as controls. The evaluation was conducted three times, and the average value and the standard deviation of the fusion index was relativized with the measured value of DMSO as 1.
C2C12 cells were passaged in a growth medium (DMEM containing 10% FBS) and differentiated in a differentiation medium (DMEM containing 2% horse serum (Invitrogen)).

[5] = system: A431 cells; assay: Tumor sphere formation of A431 cells; assay type: cell-based; details: Ultra Low Attachment plate, serum-free medium, 10 μM, 10 days, maximum diameter of 30 cell aggregates
Protocol: (2) Each well of a 96-well plate was pre-coated with 30 μL BD Matrigel (trade name, Becton, Dickinson and Company). A431 cells were suspended in the 2% BD Matrigel at a concentration of 2.1×10^6 cells/mL. This cell solution (140 μL) was added with 0.17 μL of 10 mM IBS008739 stock solution in DMSO or 0.17 μL of DMSO, and used to layer the pre-coated wells, and proliferation in the 3D matrigel was observed (see FIG. 12B). 300 of A431 cells were placed in each well of Ultra Low Attachment 96-well plate, and cultured in a serum-free DMEM-F-12 medium containing 10 ng/mL FGF, 5 μg/mL insulin and 0.1% (w/v) BSA. Formation of tumor spheres was observed under the condition with 10 mM IBS008739 stock solution dissolved in DMSO so that the final concentration was 10 μM, or the condition with DMSO of the same volume (see FIG. 12C). The maximum diameter of 30 cell aggregates of 150 μm or more observed in the 3D matrigel or sphere formation condition) are measured as the size of 3D colony or sphere. The results are shown in Table 10 and FIGS. 12B and 12C. The line in the figure is 200 μm. The line and the error bar indicate the average value and the standard error, and ns refers to not significant.
Observation of the spheres and the 3D matrigel cultivation were performed by the following processes. […]

T1 sequence (Q9GZV5 whole entry): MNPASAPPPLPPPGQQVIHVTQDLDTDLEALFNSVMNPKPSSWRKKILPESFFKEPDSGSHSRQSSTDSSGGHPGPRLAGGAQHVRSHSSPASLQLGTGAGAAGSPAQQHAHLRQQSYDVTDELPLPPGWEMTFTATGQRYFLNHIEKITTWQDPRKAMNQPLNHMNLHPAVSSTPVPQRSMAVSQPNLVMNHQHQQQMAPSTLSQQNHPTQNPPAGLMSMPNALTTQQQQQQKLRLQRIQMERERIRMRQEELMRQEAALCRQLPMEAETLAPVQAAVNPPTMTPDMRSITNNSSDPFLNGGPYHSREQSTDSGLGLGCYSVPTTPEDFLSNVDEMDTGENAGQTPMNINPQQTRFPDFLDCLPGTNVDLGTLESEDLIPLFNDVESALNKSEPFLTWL

**Q.** With `Cc1ccc(-n2cnc(/N=C/N3CCOCC3)c2C(=O)c2ccccc2)cc1` [exemplary compound 1] as the compound, how does the “interaction of TAZ and MyoD compared with DMSO” value [1] read?
**A.** Its value is “slightly promoted”.

**Q.** And the “EMT markers (fibronectin, E-cadherin, N-cadherin and vimentin) compared with DMSO” value [2]?
**A.** Its value is “no significant difference”.

**Q.** What about the “effect on the localization of TAZ in the cell” value [3] of the same compound?
**A.** Its value is “no effect”.

**Q.** And the “relative fusion index (FI)” value ([4]; Group 1, 1 μM)?
**A.** Its value is 1.47.

**Q.** What about the “relative fusion index (FI)” value ([4]; Group 1, 3 μM) of the same compound?
**A.** The value was 1.89.

**Q.** What about the “relative fusion index (FI)” value ([4]; Group 1, 10 μM) of the same compound?
**A.** The value was 2.00.

**Q.** What about the “relative fusion index (FI)” value ([4]; Group 2, 1 μM) of the same compound?
**A.** Its value is 1.33.

**Q.** What about the “relative fusion index (FI)” value ([4]; Group 2, 3 μM) of the same compound?
**A.** The value was 1.80.

**Q.** And the “relative fusion index (FI)” value ([4]; Group 2, 10 μM)?
**A.** Its value is 2.03.

**Q.** What about the “relative fusion index (FI)” value ([4]; Group 3, 1 μM) of the same compound?
**A.** The value was 1.28.

**Q.** What about the “relative fusion index (FI)” value ([4]; Group 3, 3 μM) of the same compound?
**A.** Its value is 1.67.

**Q.** And the “relative fusion index (FI)” value ([4]; Group 3, 10 μM)?
**A.** Its value is 1.76.

**Q.** And the “relative fusion index (FI)” value ([4]; Group 4, 1 μM)?
**A.** The value was 1.13.

**Q.** And the “relative fusion index (FI)” value ([4]; Group 4, 3 μM)?
**A.** Its value is 1.53.

**Q.** What about the “relative fusion index (FI)” value ([4]; Group 4, 10 μM) of the same compound?
**A.** The value was 1.68.

**Q.** What about the “relative fusion index (FI)” value ([4]; Group 5, 1 μM) of the same compound?
**A.** The value was 1.10.

**Q.** What about the “relative fusion index (FI)” value ([4]; Group 5, 3 μM) of the same compound?
**A.** Its value is 1.18.

**Q.** What about the “relative fusion index (FI)” value ([4]; Group 5, 10 μM) of the same compound?
**A.** Its value is 1.33.

**Q.** And the “Sphere size, average size (μm)” value [5]?
**A.** The value was 176.63 μm.

— patent publication US10653672B2, “Myogenesis promotor, muscle atrophy inhibitor, medical composition and TAZ activator” (National University Corporation Tokyo Medical and Dental …, priority 2014, dated 2020)
